{"source": "patent US20210290818A1", "about": "“SCAFFOLDING MATERIAL, METHODS AND USES” (LOCATE THERAPEUTICS LIMITED, priority 2016, published 2021)", "assay": "In house cohesion test of pastes (mass loss after sintering and immersion in water)", "assay_type": "physicochemical", "conditions": "for Effect of plasticiser in liquid carrier on paste cohesion: PLGA 95:5/PEG400/CS pellets, FIG. 4", "procedure": "Pastes were prepared by mixing particles with a liquid carrier and their setting was assessed using an ‘in house’ cohesion test. Briefly, following paste sintering, aluminium foils containing the pastes were placed onto a sieve mesh and immersed to a depth of around 1 cm of water for 1 minute (FIG. 1). Afterwards, they were carefully removed from the sieve. The samples were freeze-dried and weighed so that mass loss could be estimated.\nA 355 μm sieve (Endecotts, BS410/1986) was placed on to its dedicated collection tray. • 2×100 mg of particles were manually mixed in an aluminium foil (4×4 cm circa) with 70 μl of each liquid carrier. • The obtained pastes were left to sinter in a sealed plastic bag with humidity >90% for different times. • Following sintering at RT or 37° C. in a humidified environment (>90% RH), the aluminium foils containing the pastes were placed onto the sieve mesh. • A constant, gentle, circa 7 ml/sec flow of water (Millipore, Direct-Q® 3 UV) was applied to the sieve mesh, until the samples became immersed in circa 1 cm of water. • Following immersion, samples were allowed to remain immersed in the head of water for circa 1 minute. • After the 1 minute, the sieve was removed from the sieve tray and the aluminium foils containing the samples were carefully removed from the sieve. • The samples with the aluminium foil were freeze-dried and weighed so that mass loss could be estimated. • The sieve tray (which was still filled with water) was visually inspected for the presence of particles that may have been lost from the samples during.", "note": "Where a name gives a salt, the structure may show the parent alone."}
{"smiles": "CC(=O)OCC(COC(C)=O)OC(C)=O", "note": "[TA, triacetin]", "values": [{"measurement": "Effect of plasticiser in liquid carrier on paste cohesion", "result": "behave in a similar way"}]}
{"smiles": "CCO", "note": "[ethanol, Ethanol]", "values": [{"measurement": "Importance of plasticiser in liquid carrier for paste setting", "setting": "PLGA50:50/PEG400/SIM pellets, sintering 10 to 60 min at 37° C., FIG. 6", "result": "not important for paste setting"}]}
{"smiles": "CCOC(=O)CC(O)(CC(=O)OCC)C(=O)OCC", "note": "[TEC, TriEthyl Citrate]", "values": [{"measurement": "Effect of plasticiser in liquid carrier on paste cohesion", "result": "behave in a similar way"}]}
